The values below come from patent US20250019373A1, “ARYL OR HETEROARYL DERIVATIVE, AND PHARMACEUTICAL COMPOSITION COMPRISING SAME AS ACTIVE INGREDIENT FOR PREVENTION OR TREATMENT OF KINASE-RELATED DISEASES” (VORONOI INC., priority 2021, published 2025).

Structures are written as SMILES.

This assay has as its system HT-29 cells. As to the kind of experiment: Cell necrosis inhibitory activity under necroptosis-inducing conditions (TNF-α, Z-VAD-FMK, LCL161) in HT-29 cells, Cell Titer-Glo. Type of assay: cell-based. The note with it: Homo sapiens, 100 ng/mL TNF-α + 25 μM Z-VAD-FMK + Smac mimetic LCL161, 24 hours, cell viability. As for the experimental part:
To evaluate the cell necrosis inhibitory activity of the compound according to the present invention, an experiment was conducted as follows.
To evaluate the efficacy of inhibiting cell necrosis under TNF-α-mediated cell death-inducing conditions, a HT-29 cell line (Korean Cell Line Bank Accession No. #30038) was cultured in RPMI-1640 (HyClone #SH3027.01) medium containing 10% fetal bovine serum (FBS) and 1% penicillin/streptomycin to analyze cell viability. More specifically, for testing, the cell line was seeded in a 96-well flat bottom plate (Corning #3903) at a concentration of 10,000 cells/well and incubated at 37° C. under a 5% CO2 condition for 24 hours. Each well was treated with 100 ng/mL TNF-α, 25 μM pan-caspase inhibitor (Z-VAD-FMK, Selleckchem #S8102), and 10 µM Smac mimetic LCL161 (Selleckchem #S7009) and allowed to react for 10 minutes. The compounds of Examples were treated at 11 concentrations (the highest concentration being 0.1 μM or 1 μM) with a 3-fold concentration gradient, and as a control, dimethyl sulfoxide (DMSO) was treated at a concentration of 0.05% (v/v), which is the same as those when the compounds were treated. The treated cells were incubated for 24 hours. To confirm the degree of cell viability, 100 μL of Cell Titer-Glo (Promega #G7573) was added to the medium of the cultured cells and cultured for additional 10 minutes, and then luminescence was measured using a microplate reader. Based on the […] of control cells that were not treated with the compound, the degree of cell necrosis inhibitory activity was calculated according to the treatment concentration of each compound. Here, the concentration at which the cell necrosis inhibitory activity was 50% was determined as an EC50 (nM) value and calculated using Prism (ver. 8.4.3 #GraphPad) software.

On to `Cc1ccc(-c2ccc3nc(NC(=O)C4CC4)sc3n2)cc1NC(=O)N1OCC[C@H]1c1ccc(C#N)cc1` [Example 94, (S)-3-(4-cyanophenyl)-N-(5-(2-(cyclopropanecarboxamido)thiazolo[5,4-b]pyridin-5-yl)-2-methylphenyl)isoxazolidine-2-carboxamide], for which the EC50 turned out to be 300 pM. For `CNC(=O)c1n[nH]c2cc(-c3cc(NC(=O)N4OCC[C@H]4c4ccccc4)cnc3OC)ccc12` [Example 23, (S)-N-(6-methoxy-5-(3-(methylcarbamoyl)-1H-indazol-6-yl)pyridin-3-y1)-3-phenylisoxazolidine-2-carboxamide] the value was 8100 pM; for `Nc1nc2ccc(-c3ccc(Cl)c(NC(=O)N4OCC[C@H]4c4ccccc4)c3)cn2n1` [Example 97, (S)-N-(5-(2-amino-[1,2,4]triazolo[1,5-a]pyridin-6-yl)-2-chlorophenyl)-3-phenylisoxazolidine-2-carboxamide], 1100 pM; for `Cc1ccc(-c2ccn3nc(N)nc3c2)cc1NC(=O)N1OCC[C@H]1c1ccc(C#N)cc1` [Example 92, (S)-N-(5-(2-amino-[1,2,4]triazolo[1,5-a]pyridin-7-yl)-2-methylphenyl)-3-(4-cyanophenyl)isoxazolidine-2-carboxamide], 600 pM.

`COCC(=O)Nc1cn2nc(-c3cnc(OC)c(NC(=O)N4OCC[C@H]4c4ccccc4)c3)ccc2n1` [Example 6, (S)-N-(2-methoxy-5-(2-(2-methoxyacetamido)imidazo[1,2-b]pyridazin-6-yl)pyridin-3-yl)-3-phenylisoxazolidine-2-carboxamide]: the EC50 amounted to 900 pM. The figure for `Cc1ncc(-c2ccc3nc(N)nn3c2)cc1NC(=O)N1OCC[C@H]1c1cc(F)cc(C(F)(F)F)c1` [Example 43, (S)-N-(5-(2-amino-[1,2,4]triazolo[1,5-a]pyridin-6-yl)-2-methylpyridin-3-yl)-3-(3-fluoro-5-(trifluoromethyl)phenyl)isoxazolidine-2-carboxamide] is 7300 pM; for `Cc1ccc(-c2ccn3nc(N)nc3c2)cc1NC(=O)N1OCC[C@H]1c1ccc(Cl)cc1` [Example 65, (S)-N-(5-(2-amino-[1,2,4]triazolo[1,5-a]pyridin-7-yl)-2-methylphenyl)-3-(4-chlorophenyl)isoxazolidine-2-carboxamide] it is 200 pM; for `Cc1ccc(-c2ccn3ncnc3c2)cc1NC(=O)N1OCC[C@H]1c1ccccc1` [Example 102, (S)-N-(5-([1,2,4]triazolo[1,5-a]pyridin-7-yl)-2-methylphenyl)-3-phenylisoxazolidine-2-carboxamide] it is 900 pM. For `Cc1ccc(-c2ccc3nc(N)nn3c2)cc1NC(=O)N1OCC[C@H]1c1cccc(F)c1` [Example 60, (S)-N-(5-(2-amino-[1,2,4]triazolo[1,5-a]pyridin-6-yl)-2-methylphenyl)-3-(3-fluorophenyl)isoxazolidine-2-carboxamide] the value was 400 pM; for `CNC(=O)c1n[nH]c2cc(-c3cnc(C)c(NC(=O)N4OCC[C@H]4c4ccccc4)c3)ccc12` [Example 21, (S)-N-(2-methyl-5-(3-(methylcarbamoyl)-1H-indazol-6-yl)pyridin-3-yl)-3-phenylisoxazolidine-2-carboxamide], 400 pM; for `Nc1nc2cc(-c3ccc(F)c(NC(=O)N4OCC[C@H]4c4ccccc4)c3F)ccn2n1` [Example 134, (S)-N-(3-(2-amino-[1,2,4]triazolo[1,5-a]pyridin-7-yl)-2,6-difluorophenyl)-3-phenylisoxazolidine-2-carboxamide], 13000 pM. For `COc1ncc(-c2ccn3nc(N)nc3c2)cc1NC(=O)N1OCC[C@H]1c1ccccc1` [Example 47, (S)-N-(5-(2-amino-[1,2,4]triazolo[1,5-a]pyridin-7-yl)-2-methoxypyridin-3-yl)-3-phenylisoxazolidine-2-carboxamide] the value was 500 pM; for `COc1ncc(-c2ccc3nc(NC(C)=O)sc3n2)cc1NC(=O)N1OCC[C@H]1c1ccccc1` [Example 14, (S)-N-(5-(2-acetamidothiazolo[5,4-b]pyridin-5-yl)-2-methoxypyridin-3-yl)-3-phenylisoxazolidine-2-carboxamide], 700 pM; for `COc1ncc(-c2ccc3nc(N)cn3n2)cc1NC(=O)N1OCC[C@H]1c1ccccc1` [Example 7, (S)-N-(5-(2-aminoimidazo[1,2-b]pyridazin-6-y1)-2-methoxypyridin-3-yl)-3-phenylisoxazolidine-2-carboxamide], 40000 pM. On to `Cc1ccc(-c2ccc3nc(N)nn3c2)cc1NC(=O)N1OCC[C@H]1c1ccc(C#N)cc1` [Example 91, (S)-N-(5-(2-amino-[1,2,4]triazolo[1,5-a]pyridin-6-yl)-2-methylphenyl)-3-(4-cyanophenyl)isoxazolidine-2-carboxamide], for which the EC50 was found to be 900 pM. With `CN(C)C1CCC(NC(=O)c2n[nH]c3cc(-c4cccc(NC(=O)N5OCC[C@H]5c5ccccc5)c4)ccc23)CC1` (stereo partly drawn) [Example 20, (S)-N-(3-(3-((4-(dimethylamino)cyclohexyl)carbamoyl)-1H-indazol-6-yl)phenyl)-3-phenylisoxazolidine-2-carboxamide], the EC50 was 300 pM.

Regarding `Cc1ncc(-c2ccc3nc(N)nn3c2)cc1NC(=O)N1OCC[C@H]1c1cc(F)cc(Cl)c1` [Example 52, (S)-N-(5-(2-amino-[1,2,4]triazolo[1,5-a]pyridin-6-yl)-2-methylpyridin-3-yl)-3-(3-chloro-5-fluorophenyl)isoxazolidine-2-carboxamide], the EC50 was 2800 pM.

On to `Cc1ccc(-c2ccc3nc(N)nn3c2)cc1NC(=O)N1OCC[C@H]1c1ccc(F)cc1` [Example 66, (S)-N-(5-(2-amino-[1,2,4]triazolo[1,5-a]pyridin-6-yl)-2-methylphenyl)-3-(4-fluorophenyl)isoxazolidine-2-carboxamide], for which the EC50 was 400 pM.

Turning to `COc1ncc(-c2ccc3nc(NC(=O)C4CC4)cn3n2)cc1NC(=O)N1OCC[C@H]1c1ccccc1` [Example 4, (S)-N-(5-(2-(cyclopropanecarboxamido)imidazo[1,2-b]pyridazin-6-yl)-2-methoxypyridin-3-yl)-3-phenylisoxazolidine-2-carboxamide], the EC50 was determined as 200 pM.

With `CC(=O)Nc1nc2cc(-c3cnc(C)c(NC(=O)N4OCC[C@H]4c4ccccc4)c3)ccn2n1` [Example 49, (S)-N-(5-(2-acetamido-[1,2,4]triazolo[1,5-a]pyridin-7-yl)-2-methylpyridin-3-yl)-3-phenylisoxazolidine-2-carboxamide], the EC50 stood at 1300 pM. Regarding `COc1ncc(-c2ccc3nc(NC(C)=O)oc3c2)cc1NC(=O)N1OCC[C@H]1c1ccccc1` [Example 13, (S)-N-(5-(2-acetamidobenzo[d]oxazol-6-yl)-2-methoxypyridin-3-yl)-3-phenylisoxazolidine-2-carboxamide], the EC50 was 2600 pM. For `COc1ncc(-c2ccc3nc(NC(C)=O)sc3c2)cc1NC(=O)N1OCC[C@H]1c1ccccc1` [Example 26, (S)-N-(5-(2-acetamidobenzo[d]thiazol-6-yl)-2-methoxypyridin-3-yl)-3-phenylisoxazolidine-2-carboxamide] the value was 700 pM.

On to `Cc1ccc(-c2ccc3ncc(C#CC(C)(C)O)n3n2)cc1NC(=O)N1OCC[C@H]1c1ccccc1` [Example 117, (S)-N-(5-(3-(3-hydroxy-3-methylbut-1-yn-1-yl)imidazo[1,2-b]pyridazin-6-yl)-2-methylphenyl)-3-phenylisoxazolidine-2-carboxamide], for which the concentration giving a half-maximal response (EC50) amounted to 2400 pM. For `COc1ccc(-c2ccc3nc(N)nn3c2)cc1NC(=O)N1OCC[C@H]1c1ccccc1` [Example 31, (S)-N-(5-(2-amino-[1,2,4]triazolo[1,5-a]pyridin-6-yl)-2-methoxyphenyl)-3-phenylisoxazolidine-2-carboxamide], the EC50 stood at 4600 pM. The figure for `COc1ccc(-c2ccc3nc(NC(C)=O)cn3n2)cc1NC(=O)N1OCC[C@H]1c1ccccc1` [Example 8, (S)-N-(5-(2-acetamidoimidazo[1,2-b]pyridazin-6-yl)-2-methoxyphenyl)-3-phenylisoxazolidine-2-carboxamide] is 400 pM; for `Cc1ccc(-c2ccc3nc(NC(=O)C4CC4)sc3c2)cc1NC(=O)N1OCC[C@H]1c1ccc(C#N)cc1` [Example 93, (S)-3-(4-cyanophenyl)-N-(5-(2-(cyclopropanecarboxamido)benzo[d]thiazol-6-yl)-2-methylphenyl)isoxazolidine-2-carboxamide] it is 200 pM. For `Cc1ncc(-c2ccc3nc(N)nn3c2)cc1NC(=O)N1OCC[C@H]1c1ccc(C#N)cc1` [Example 68, (S)-N-(5-(2-amino-[1,2,4]triazolo[1,5-a]pyridin-6-yl)-2-methylpyridin-3-yl)-3-(4-cyanophenyl)isoxazolidine-2-carboxamide] the value was 3900 pM; for `Cc1ccc(-c2ccc3ncc(C#N)n3n2)cc1NC(=O)N1OCC[C@H]1c1ccccc1` [Example 118, (S)-N-(5-(3-cyanoimidazo[1,2-b]pyridazin-6-yl)-2-methylphenyl)-3-phenylisoxazolidine-2-carboxamide], 4300 pM.
